The values below come from patent US20220143210A1, “HYDROGEL COMPOSITIONS AND METHODS FOR TREATEMENT OF MALIGNANCIES” (Fred Hutchinson Cancer Research Center, priority 2019, published 2022).

Data set [1] relates to GFP+ HGG cells in a 1:1 co-culture with murine macrophages. It is filed as cell-based, human PDX tumor cells, murine macrophages (C57/B6 mouse). To be noted: single agent; macrophage species not specified. The method, then:
All chemokines were purchased from Sigma-Aldrich. LEAF hCD47 mAb was purchased from eBioscience (cat number, B6H12 clone). Primary murine macrophages were derived from bone marrow of a C57/B6 mouse. Bone marrow derived mononuclear progenitors were cultured in RPMI with CSF-1 for 3 days before freezing/use in assays. Patient-derived xenograft (PDX) were obtained from autopsy or biopsy. PDX lines were cultured in Neuralcult Serum Free (Stem cell tech) with Neuralcult supplement (cat no), 100 U ml-1 PenStrep, Glutamax, EGF and FGF. Cells were grown adherent on tissue-culture treated plates after at least 2 hours of Laminin coating (Sigma-aldrich) in an incubator at 37° C. in 5% CO2. All PDX lines were transduced with H2b-GFP and Luciferase to assist in cell counting and tumor size visualization via IVIS. Xenograft tumors were established in the cortex of female athymic mice nu/nu (Harlan) mice. Tumors were allowed to grow to an IVIS threshold before study enrollment. All mouse studies were carried out following protocols approved by the IACUC at FHCRC (protocol 1457) and complied with all relevant ethical regulations.
Phagocytosis assays were performed using the Basic Analyzer software on Essen Bio's Incucyte Zoom 2016 and S3. […] Using the aforementioned definitions, the Incucyte calculated the reduction of GFP+ nuclei in the wells over time in response to those factors. […]

Data set [2] concerns GFP+ PDX brain tumor cells (HGG). Briefly: In vitro chemotaxis (transwell, Incucyte) assay. The data set is classed as cell-based, human. As to conditions: for chemotaxis / migration of PDX brain tumor cells: chemokine gradient, transwell. The method, then:
Cell migration assays were performed using the Chemotaxis software on Essen Bio's Incucyte Zoom 2016 and S3. Specialized 96 well transwell plates were supplied by Essen Bio. GFP+ PDX cells were cultured in the aforementioned Neuralcult media without EGF/FGF supplementation. The Incucyte software definitions were trained to identify GFP+ rounded objects spanning the range of healthy nuclei found in my cultures.
It has been hypothesized that it is possible to exploit the migratory behavior of high grade brain tumors by employing chemokine gradients to attract them out of inoperable locations and into a location within the brain that maximizes their exposure to opsonin and macrophages. […] Flow analysis confirms the expression of the requisite chemokine receptors on the HGG line used in our chemotaxis assay, as shown in FIGS. 2A-2C.

For data set [3] the following is noted: administered intravenously, clinically; cited from earlier work.

Entries after “also recorded” stand apart in the source; their conditions may differ.

On to `CCOCc1nc2c(N)nc3ccccc3c2n1CC(C)(C)O` [R848, reference compound], for which the “effects on the tumor cells in co-culture” value in data set [1] was “mild effects”. Take “CCL2: classical immune cell chemokine, purchased from Sigma-Aldrich”: the “relative chemotactic potency across PDX lines” value in data set [2] (across all lines tested) is given as “most potency across all lines tested”. For the same molecule, the “chemotaxis / migration of PDX brain tumor cells” value (“chemotaxis / migration” below) in data set [2] is “induced varying degrees of chemotaxis; also recorded: effective at eliciting chemotaxis; also recorded: effective at eliciting migration”. Consider “CXCL8: classical immune cell chemokine, purchased from Sigma-Aldrich”, for which the “chemotaxis / migration” value in data set [2] is listed as “induced varying degrees of chemotaxis; also recorded: effective at eliciting migration”. On to “CXCL12: classical immune cell chemokine, purchased from Sigma-Aldrich”, for which, in data set [2], the “chemotaxis / migration” value is given as “induced varying degrees of chemotaxis; also recorded: effective at eliciting migration”. IFNg: M1-polarizing agent: the “effects on the tumor cells in co-culture” value in data set [1] is listed as “mild effects”.

B1: IFNg: M1-polarizing agent (protein, UniProt P01579 24-161, looked up)
Interferon gamma: QDPYVKEAENLKKYFNAGHSDVADNGTLFLGILKNWKEESDRKIMQSQIVSFYFKLFKNFKDDQSIQKSVETIKEDMNVKFFNSNKKKRDDFEKLTNYSVTDLNVQRKAIHELIQVMAELSPAAKTGKRKRSQMLFRG
Turning to B1, in data set [3], the systemic toxicity result is on record as “dramatic systemic toxicity”.
